34 compounds from patent US9255101B2 (BIOPROJECT, priority 2012, dated 2016) can be followed below.

SMILES strings stand for the structures. Structures can show the parent of a compound that is named as a salt.

In general, Ki refers to a dissociation constant, usually derived from enzyme kinetics or from competition with a known ligand. The low end stands for higher affinity, the high end for lower affinity.

In this experiment the target is human H4 receptor (Homo sapiens, UniProt Q9H3N8). Kind of experiment: biochemical.
Chain of human H4 receptor (Q9H3N8 whole entry): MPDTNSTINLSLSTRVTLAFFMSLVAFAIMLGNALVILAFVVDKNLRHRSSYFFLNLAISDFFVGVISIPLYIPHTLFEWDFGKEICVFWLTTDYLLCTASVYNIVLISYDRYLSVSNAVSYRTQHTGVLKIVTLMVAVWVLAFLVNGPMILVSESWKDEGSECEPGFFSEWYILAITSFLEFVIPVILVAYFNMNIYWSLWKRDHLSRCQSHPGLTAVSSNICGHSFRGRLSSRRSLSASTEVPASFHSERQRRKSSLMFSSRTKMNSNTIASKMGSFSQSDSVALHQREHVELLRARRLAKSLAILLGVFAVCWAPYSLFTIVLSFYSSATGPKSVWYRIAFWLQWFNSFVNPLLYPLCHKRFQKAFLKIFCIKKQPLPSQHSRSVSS
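Note: radioligand displacement of a [3H]-labelled ligand from membranes of CHO cells stably expressing human H4 receptor, bound radioactivity counted on filters by liquid scintillation.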

Regarding `CN1CCC(OC2c3ccccc3CCn3cc(SC4CCCCC4)nc32)CC1` (stereo not shown) [Example 98, 2-cyclohexylsulfanyl-4-(1-methylpiperidin-4-yloxy)-9,10-dihydro-4H-3,10a-diaza-benzo[f]azulene oxalate], the Ki was less than 300 nM.
The value for `CN(C)CCOc1ccc(-c2cn3c(n2)C(OC2CCN(C)CC2)c2ccccc2CC3)cc1` (stereo not shown) [Example 180, dimethyl-(2-{4-[4-(1-methylpiperidin-4-yloxy)-9,10-dihydro-4H-3,10a-diaza-benzo[f]azulen-2-yl]-phenoxy}-ethyl)-amine] was less than 300 nM; that for `Cc1c(-c2ccc(CCNC(=O)OC(C)(C)C)cc2)nc2n1CCc1ccccc1C2OC1CCN(C)CC1` (stereo not shown) [Example 223, (2-{4-[1-methyl-4-(1-methylpiperidin-4-yloxy)-9,10-dihydro-4H-3,10a-diaza-benzo[f]azulen-2-yl]-phenyl}-ethyl)-carbamic acid tert-butyl ester] was less than 30 nM; that for `CN1CCC(OC2c3ccccc3CCn3cc(-c4ccc(CCOC(=O)NC(C)(C)C)cc4)nc32)CC1` (stereo not shown) [Example 200, tert-butyl-carbamic acid 2-{4-[4-(1-methylpiperidin-4-yloxy)-9,10-dihydro-4H-3,10a-diaza-benzo[f]azulen-2-yl]-phenyl}-ethyl ester] was less than 300 nM.
`Cc1c(-c2ccc(SC(C)(C)C)cc2)nc2n1CCc1ccccc1C2OC1CCN(C)CC1` (stereo not shown) [Example 166, 2-(4-tert-butylsulfanylphenyl)-1-methyl-4-(1-methylpiperidin-4-yloxy)-9,10-dihydro-4H-3,10a-diaza-benzo[f]azulene oxalate] registered a Ki of less than 30 nM.
In turn, `CN1CCC(OC2c3ccccc3CCn3cc(-c4ccc(CCSC(C)(C)C)cc4)nc32)CC1` (stereo not shown) [Example 189, 2-[4-(2-tert-butylsulfanylethyl)-phenyl]-4-(1-methylpiperidin-4-yloxy)-9,10-dihydro-4H-3,10a-diaza-benzo[f]azulene] came in with a Ki of less than 300 nM.
Compound `Cc1c(-c2ccc(C3=CCCCCC3)cc2)nc2n1CCc1ccccc1C2OC1CCN(C)CC1` (stereo not shown) [Example 171, 2-(4-cyclohept-1-enylphenyl)-1-methyl-4-(1-methylpiperidin-4-yloxy)-9,10-dihydro-4H-3,10a-diaza-benzo[f]azulene] gave a Ki of less than 30 nM.
On to `Cc1c(-c2ccc(C3CCN(C(=O)OC(C)(C)C)CC3)cc2)nc2n1CCc1ccccc1C2OC1CCN(C)CC1` (stereo not shown) [Example 177, 4-{4-[1-methyl-4-(1-methylpiperidin-4-yloxy)-9,10-dihydro-4H-3,10a-diaza-benzo[f]azulen-2-yl]-phenyl}-piperidine-1-carboxylic acid tert-butyl ester], for which the Ki was less than 30 nM.
On to `CN(C)CCCOC1c2ccccc2CCn2c1nc(I)c2I` (stereo not shown) [Example 270, [3-(1,2-diiodo-9,10-dihydro-4H-3,10a-diaza-benzo[f]azulen-4-yloxy)-propyl]-dimethyl-amine], for which the inhibition constant (Ki) was less than 1000 nM.
Consider `CN1CCC(OC2c3ccccc3CCn3cc(-c4cccnc4)nc32)CC1` (stereo not shown) [Example 45, 4-(1-methylpiperidin-4-yloxy)-2-pyridin-3-yl-9,10-dihydro-4H-3,10a-diaza-benzo[f]azulene oxalate], for which the Ki was less than 1000 nM.
To `CN1CCC(OC2c3ccccc3CCn3cc(-c4ccc(OCC5CC5)cc4)nc32)CC1` (stereo not shown) [Example 193, 2-(4-cyclopropylmethoxyphenyl)-4-(1-methylpiperidin-4-yloxy)-9,10-dihydro-4H-3,10a-diaza-benzo[f]azulene] belongs less than 300 nM.
With `CN1CCC(OC2c3ccccc3CCn3cc(-c4ccc(CNC(=O)OC(C)(C)C)cc4)nc32)CC1` (stereo not shown) [Example 115, {4-[4-(1-methylpiperidin-4-yloxy)-9,10-dihydro-4H-3,10a-diaza-benzo[f]azulen-2-yl]-benzyl}-carbamic acid tert-butyl ester], the Ki is less than 300 nM.
With `CN1CCC(OC2c3ccccc3CCn3cc(-c4ccc(CN(C)C(=O)OC(C)(C)C)cc4)nc32)CC1` (stereo not shown) [Example 182, methyl-{4-[4-(1-methylpiperidin-4-yloxy)-9,10-dihydro-4H-3,10a-diaza-benzo[f]azulen-2-yl]benzyl}-carbamic acid tert-butyl ester], the Ki is less than 300 nM.
`Cc1c(C(O)C(C)C)nc2n1CCc1ccccc1C2OC1CCN(C)CC1` (stereo not shown) [Example 210, 2-methyl-1-[1-methyl-4-(1-methylpiperidin-4-yloxy)-9,10-dihydro-4H-3,10a-diaza-benzo[f]azulen-2-yl]-propan-1-ol, oxalate] came in with a Ki of less than 1000 nM.
For `CN1CCC(OC2c3ccccc3CCn3cc(SCc4ccco4)nc32)CC1` (stereo not shown) [Example 85, 2-(furan-2-ylmethylsulfanyl)-4-(1-methylpiperidin-4-yloxy)-9,10-dihydro-4H-3,10a-diaza-benzo[f]azulene oxalate], the Ki is less than 300 nM.
Take `CN1CCC(OC2c3ccccc3CCn3cc(-c4ccc(CN5CCCC5=O)cc4)nc32)CC1` (stereo not shown) [Example 184, 1-{4-[4-(1-methylpiperidin-4-yloxy)-9,10-dihydro-4H-3,10a-diaza-benzo[f]azulen-2-yl]benzyl}-pyrrolidin-2-one]: the Ki is less than 1000 nM.
The value for `COCc1ccc(-c2cn3c(n2)C(OC2CCN(C)CC2)c2ccccc2CC3)cc1` (stereo not shown) [Example 19, 2-(4-methoxymethylphenyl)-4-(1-methylpiperidin-4-yloxy)-9,10-dihydro-4H-3,10a-diaza-benzo[f]azulene oxalate] was less than 300 nM; that for `CN1CCC(OC2c3ccccc3CCn3cc(-c4ccccc4[N+](=O)[O-])nc32)CC1` (stereo not shown) [Example 190, 4-(1-methylpiperidin-4-yloxy)-2-(2-nitrophenyl)-9,10-dihydro-4H-3,10a-diaza-benzo[f]azulene] was less than 300 nM.
The compound `CN1CCC(OC2c3ccccc3CCn3cc(C=Cc4cccs4)nc32)CC1` (stereo not shown) [Example 111, 4-(1-methylpiperidin-4-yloxy)-2-(2-thiophen-2-ylvinyl)-9,10-dihydro-4H-3,10a-diaza-benzo[f]azulene] came in with a Ki of less than 30 nM.
Consider `Cc1c(-c2ccc(CCS(C)(=O)=O)cc2)nc2n1CCc1ccccc1C2OC1CCN(C)CC1` (stereo not shown) [Example 159, 2-[4-(2-methanesulfonylethyl)-phenyl]-1-methyl-4-(1-methylpiperidin-4-yloxy)-9,10-dihydro-4H-3,10a-diaza-benzo[f]azulene], for which the inhibition constant Ki was less than 30 nM.
Consider `CN1CCC(OC2c3ccccc3CCn3c2nc(-c2ccccc2)c3C#N)CC1` (stereo not shown) [Example 235, 4-(1-methylpiperidin-4-yloxy)-2-phenyl-9,10-dihydro-4H-3,10a-diaza-benzo[f]azulene-1-carbonitrile], for which the Ki was less than 30 nM.
Regarding `CN1CCC(OC2c3ccccc3CCn3cc(C=CC(=O)OC(C)(C)C)nc32)CC1` (stereo not shown) [Example 53, 3-[4-(1-methylpiperidin-4-yloxy)-9,10-dihydro-4H-3,10a-diaza-benzo[f]azulen-2-yl]-acrylic acid tert-butyl ester oxalate], the Ki was less than 1000 nM.
As for `CN1CCC(OC2c3ccccc3CCn3cc(SC4CCN(C(=O)OC(C)(C)C)CC4)nc32)CC1` (stereo not shown) [Example 114, 4-[4-(1-methylpiperidin-4-yloxy)-9,10-dihydro-4H-3,10a-diaza-benzo[f]azulen-2-ylsulfanyl]-piperidine-1-carboxylic acid tert-butyl ester], the Ki was less than 300 nM.
To `CN1CCC(OC2c3ccccc3CCn3cc(CCc4cccs4)nc32)CC1` (stereo not shown) [Example 126, 4-(1-methylpiperidin-4-yloxy)-2-(2-thiophen-2-ylethyl)-9,10-dihydro-4H-3,10a-diaza-benzo[f]azulene oxalate] belongs less than 300 nM.
The value for `CN1CCC(OC2c3ccccc3CCn3cc(-c4ccc(N(C)C(=O)C(C)(C)C)cc4)nc32)CC1` (stereo not shown) [Example 101, 2,2,N-trimethyl-N-{4-[4-(1-methylpiperidin-4-yloxy)-9,10-dihydro-4H-3,10a-diaza-benzo[f]azulen-2-yl]-phenyl}-propionamide oxalate] was less than 300 nM; that for `CN1CCC(OC2c3ccccc3CCn3cc(-c4cncs4)nc32)CC1` (stereo not shown) [Example 48, 4-(1-methylpiperidin-4-yloxy)-2-thiazol-5-yl-9,10-dihydro-4H-3,10a-diaza-benzo[f]azulene oxalate] was less than 1000 nM; that for `CN1CCC(OC2c3ccccc3CCn3cc(-c4ccc(CN5CCN(C(C)(C)C)C5=O)cc4)nc32)CC1` (stereo not shown) [Example 191, 1-tertbutyl-3-{4-[4-(1-methylpiperidin-4-yloxy)-9,10-dihydro-4H-3,10a-diaza-benzo[f]azulen-2-yl]benzyl}-imidazolidin-2-one] was less than 300 nM.
Turning to `CN1CCC(OC2c3ccccc3CCn3cc(C4=CCSCC4)nc32)CC1` (stereo not shown) [Example 57, 2-(3,6-dihydro-2H-thiopyran-4-yl)-4-(1-methylpiperidin-4-yloxy)-9,10-dihydro-4H-3,10a-diaza-benzo[f]azulene], the Ki is less than 300 nM.
The value for `Cc1c(-c2ccc(NC(=O)OCC(C)C)cc2)nc2n1CCc1ccccc1C2OC1CCN(C)CC1` (stereo not shown) [Example 174, {4-[1-Methyl-4-(1-methyl-piperidin-4-yloxy)-9,10-dihydro-4H-3,10a-diaza-benzo[f]azulen-2-yl]-phenyl}-carbamic acid isobutyl ester] was less than 30 nM; that for `CN1CCC(OC2c3ccccc3CCn3cc(-c4nccs4)nc32)CC1` (stereo not shown) [Example 66, 4-(1-methylpiperidin-4-yloxy)-2-thiazol-2-yl-9,10-dihydro-4H-3,10a-diaza-benzo[f]azulene oxalate] was less than 300 nM.
`CN(C)CCOC1c2ccccc2CCn2c1nc(I)c2I` (stereo not shown) [Example 264, [2-(1,2-diiodo-9,10-dihydro-4H-3,10a-diaza-benzo[f]azulen-4-yloxy)-ethyl]-dimethyl-amine] returned a Ki of less than 1000 nM.
For `CN1CCC(OC2c3ccccc3CCn3cc(-c4ccc(CCNC(=O)OC(C)(C)C)cc4)nc32)CC1` (stereo not shown) [Example 196], the Ki was less than 300 nM.
`CCCc1nc2n(c1-c1ccccc1)CCc1ccccc1C2OC1CCN(C)CC1` (stereo not shown) [Example 246, 4-(1-methyl-piperidin-4-yloxy)-1-phenyl-2-propyl-9,10-dihydro-4H-3,10a-diaza-benzo[f]azulene] yielded a Ki of less than 300 nM.
`Ic1nc2n(c1I)CCc1ccccc1C2OC1CN2CCC1CC2` (stereo not shown) [Example 271, 4-(1-azabicyclo[2.2.2]oct-3-yloxy)-1,2-diiodo-9,10-dihydro-4H-3,10a-diaza-benzo[f]azulene oxalate]: the Ki is less than 1000 nM.
